In patent US20240189289A1, “INHIBITORS OF EPHB3 SIGNALING” (The Brigham and Women`s Hospital, Inc., priority 2021, published 2024):

Tests used:
[1] = test system: neonatal murine astrocytes; experiment: Neonatal murine astrocytes activated with TNFα and IL-1β: qPCR and ELISA; type: cell-based, mouse
Method: (§1) Mouse primary astrocyte cultures. […] The cell suspension was then cultured at 37° C. in humidified 5% CO2 on poly-L-Lysine (#P4707, Sigma-Aldrich) pre-coated cell culture flasks. Medium was replaced every 3-5 days. The cells reached confluence after 7-10 days. Microglia were separated by shaking the glia culture at 225 rpm at 37° C. for at least 3 h and washing extensively with 1×PBS. Astrocytes were detached by mild trypsinization with Trypsin-EDTA (0.05%) at 37° C. and plated. […] Both cell types were then cultured separately for downstream procedures. […] Finally, microglia and astrocytes of each condition where magnetically separated as before and lysed for downstream gene expression analysis.
RNA isolation, cDNA synthesis and qPCR. […] Data were analyzed by the ddCt method by normalizing the expression of each gene to GAPDH and HPRT for mouse and GAPDH for human and then to the control group. All probes are listed below. • Mouse: EphB3 Mm00802553_m1, Ccl2 Mm00441242_m1, Csf2 Mm01290062_m1, Nos2 Mm00440502_m1, Tnf Mm00443258 m1, Il1b Mm00434228_m1, 116 Mm00446190_m1, GAPDH Mm99999915_g1. • Human: CCL2 Hs00234140_m1, CSF2 Hs00929873 ml, NOS2 Hs01075529_m1, TNF • Hs00174128_m1, IL6 Hs00985639_m1, IL1b Hs01555410_m1, GAPDH Hs02758991_g1.

[2] = Mouse liver microsome stability; type: in vitro ADME; conditions: mouse liver microsomes; read-out: mouse liver microsome stability T1/2
microglia = experiment: Neonatal murine microglia stimulated with LPS: qPCR; type: cell-based, mouse; conditions: induced by LPS stimulation
Method: RNA isolation, cDNA synthesis and qPCR. RNA was extracted from in vitro generated samples with RNeasy Mini kit (#74106, QIAGEN) and cDNA was prepared by using the High-Capacity cDNA Reverse Transcription Kit (#4368813, Life Technologies), both according to the manufacturer's protocol. Gene expression was measured by qPCR with Taqman Fast Universal PCR Master Mix (#4367846, Life Technologies). Data were analyzed by the ddCt method by normalizing the expression of each gene to GAPDH and HPRT for mouse and GAPDH for human and then to the control group. All probes are listed below. • Mouse: EphB3 Mm00802553_m1, Ccl2 Mm00441242_m1, Csf2 Mm01290062_m1, Nos2 Mm00440502_m1, Tnf Mm00443258 m1, Il1b Mm00434228_m1, 116 Mm00446190_m1, GAPDH Mm99999915_g1. • Human: CCL2 Hs00234140_m1, CSF2 Hs00929873 ml, NOS2 Hs01075529_m1, TNF • Hs00174128_m1, IL6 Hs00985639_m1, IL1b Hs01555410_m1, GAPDH Hs02758991_g1.

NOD EAE = experiment: Chronic progressive EAE in NOD mice (MOG35-55); type: in vivo, mouse
Method: EAE. […] EAE was assessed as follows: 0, no signs of disease; 1, loss of tone in the tail; 2, hind limb paresis; 3, hind limb paralysis; 4, tetraplegia; 5, moribund.
To further validate the potential of EphB3 kinase inhibition for the therapeutic modulation of CNS inflammation and neurodegeneration, a study was performed using non-obese diabetic (NOD) mouse model of chronic progressive EAE induced by immunization with MOG35-55, which recapitulated aspects of secondary progressive MS, including the progressive and irreversible accumulation of neurologic disability.

[3] = Preliminary in vivo pharmacokinetic evaluation, IP, plasma and brain concentrations; set-up: species or system Sprague-Dawley rats
[4] = test system: PI3K/AKT/mTOR signaling in astrocytes; experiment: Western blot of PI3K/AKT/mTOR/NF-κB signaling in primary murine astrocytes; type: cell-based, mouse
Method: as §1
SDS-PAGE and Western blot. […] Membranes were blocked in 10% skimmed milk (#M0841, Lab Scientific) in TBS-T (#IBB-180-2L, Boston BioProducts). Primary antibodies were incubated ON at 4° C. and secondary 30 minutes at RT.
HRP-conjugated blots were developed using the KwikQuant imaging system and KwikQuant western blot detection kit (#R1004 Kindle Biosciences).

[5] = astrocytes activated 30 minutes with TNFα and IL-1β
[6] = astrocytes stimulated with TNFα and IL-1β

**Q.** Which “116 expression in astrocytes (qPCR)” value [1] does the source give for O=C(Nc1ccccc1Cl)c1cnc2ccc(C3CCNCC3)cn12 [A38] here?
**A.** reduced 116 expression in astrocytes in a dose-dependent manner

**Q.** What about the “production of CCL2 (ELISA)” value [1] of the same molecule?
**A.** decreased

**Q.** And the “production of IL-6 (ELISA)” value [1]?
**A.** decreased

**Q.** What about the “production of TNFα (ELISA)” value [1] of the same molecule?
**A.** decreased

**Q.** What about the half-life [2] of the same molecule?
**A.** > 5 h

**Q.** And the “microglial expression of Nos2” value (microglia)?
**A.** no effect

**Q.** And the “microglial expression of Tnfa” value (microglia)?
**A.** no effect

**Q.** And the “NOD EAE clinical scores” value (NOD EAE; administration during the progressive phase)?
**A.** ameliorated NOD EAE, as indicated by the reduced clinical scores

**Q.** What about the “astrocyte and microglial expression of transcriptional modules associated with CNS inflammation and neurodegeneration” value (NOD EAE; progressive phase of NOD EAE) of the same molecule?
**A.** suppressed

**Q.** And the “peripheral T-cell response” value (NOD EAE; progressive phase of NOD EAE)?
**A.** no changes in the peripheral T-cell response were detected

**Q.** And the “recruitment of pro-inflammatory monocytes to the CNS” value (NOD EAE; progressive phase of NOD EAE)?
**A.** decreased recruitment

**Q.** What about the “brain Cmax” value ([3]; IP 3 mg/kg in 100% saline, male Sprague-Dawley rats, mono-oxalate salt) of the same molecule?
**A.** 331 ng/mL

**Q.** What about the Pgp substrate ([3]; inferred from the brain to plasma ratio) of the same molecule?
**A.** not a Pgp substrate

**Q.** And the Kp ([3]; rat, brain/plasma, IP 3 mg/kg, male Sprague-Dawley rats, mono-oxalate salt, read-out: brain to plasma ratio)?
**A.** 1.5

**Q.** What about the Cmax ([3]; rat, plasma, IP 3 mg/kg in 100% saline, male Sprague-Dawley rats, mono-oxalate salt) of the same molecule?
**A.** 221 ng/mL

**Q.** What about the half-life ([3]; rat, plasma, IP 3 mg/kg in 100% saline, male Sprague-Dawley rats, mono-oxalate salt, read-out: plasma half-life T1/2 (converted)) of the same molecule?
**A.** 2.25 h

**Q.** What about the “phosphorylation of AKT” value [4, 5] of the same molecule?
**A.** suppressed

**Q.** What about the “phosphorylation of p85a, p55a” value [4, 5] of the same molecule?
**A.** suppressed

**Q.** And the “NF-κB activation (p65 phosphorylation and nuclear translocation)” value [4, 6]?
**A.** did not suppress NF-κB activation

**Q.** What about the S6 phosphorylation [4, 6] of the same molecule?
**A.** suppressed S6 phosphorylation
